Measured values: patent publication US8535731B2, “Use of extracts of the Cassia alata plant” (BASF Beauty Care Solutions France S.A.S., priority 2000, dated 2013)

Tested on: human keratinocytes
Assay: Inhibition of apoptosis induced by growth factor deficiency, cell count and BrdU ELISA of cytoplasmic DNA fragments
Type: cell-based
Details: 30 ng/ml, percent of control
Method: The ability of the plant extracts of Cassia alata to prevent apoptosis induced by a deficiency of growth factors in human skin cells was investigated. The test was conducted in vitro on human fibroblasts and human keratinocytes. The human cells were cultivated in a nutrient medium (DMEM=Dulbecco […] from Life Technologie S.a.r.l.) containing 10% of foetal calf serum (from Dutcher). Bromodeoxyuridine (BrdU) was added to this nutrient medium. It was incorporated in the DNA and was subsequently used to detect the DNA fragments in the cytoplasm. After two days' incubation, the nutrient medium was replaced by nutrient medium (DMEM) with no foetal calf serum. The active substance to be tested was added. […] For comparison, a cell sample was incubated without any active substance to be tested (quantities and concentrations shown in Tables 5 and 6).
After incubation for one or two days at 37° C., the cells were recovered by trypsination using the Dunnebacke and Zitcer method described in Cell and Tissue Culture, Ed.: J. Paul, Churchill Livingstone, 1975, p. […] After the trypsin treatment, the cells were centrifuged and counted. The BrdU content in DNA fragments from the cytoplasm was then determined by the ELISA Test (ELISA Kit from Roche). […]

EGF: known growth factor Epidermal Growth Factor, polypeptide of 53 amino acids
Cell counting: 121% | Content of DNA fragments in the cytoplasm: 32%
